Laboratory results taken from ChEMBL document CHEMBL4725372, “Rational Design of Suprastat: A Novel Selective Histone Deacetylase 6 Inhibitor with the Ability to Potentiate Immunotherapy in Melanoma Models” (J Med Chem, 2020).
Activity calls are given as the source filed them. No cut-off for these calls is given here.

Key:
HEK293 = assay: Selectivity index, ratio of IC50 for human HDAC8 expressed in HEK293/T17 cells (unknown origin) to human HDAC6 expressed in HEK293/T17 cells; format: cell-based
Mus musculus = assay: Immunomodulatory activity in C57BL/6 mouse harboring mouse SM1 cells assessed as effect on immunosuppressive T-regs at 25 mg/kg, ip dosed 5 days per week by flow cytometry; format: functional, organism-based; details: time 5.0 day/week
[1] = molecular target: T1, Protein deacetylase HDAC6 (Mus musculus) (UniProt Q9Z2V5); assay: Inhibition of HDAC6 in INFgamma and LPS-induced mouse bone marrow derived macrophages assessed as decrease in IL10 gene expression at 5 uM by quantitative PCR analysis; format: tissue-based; details: Macrophage
T1 sequence (whole entry): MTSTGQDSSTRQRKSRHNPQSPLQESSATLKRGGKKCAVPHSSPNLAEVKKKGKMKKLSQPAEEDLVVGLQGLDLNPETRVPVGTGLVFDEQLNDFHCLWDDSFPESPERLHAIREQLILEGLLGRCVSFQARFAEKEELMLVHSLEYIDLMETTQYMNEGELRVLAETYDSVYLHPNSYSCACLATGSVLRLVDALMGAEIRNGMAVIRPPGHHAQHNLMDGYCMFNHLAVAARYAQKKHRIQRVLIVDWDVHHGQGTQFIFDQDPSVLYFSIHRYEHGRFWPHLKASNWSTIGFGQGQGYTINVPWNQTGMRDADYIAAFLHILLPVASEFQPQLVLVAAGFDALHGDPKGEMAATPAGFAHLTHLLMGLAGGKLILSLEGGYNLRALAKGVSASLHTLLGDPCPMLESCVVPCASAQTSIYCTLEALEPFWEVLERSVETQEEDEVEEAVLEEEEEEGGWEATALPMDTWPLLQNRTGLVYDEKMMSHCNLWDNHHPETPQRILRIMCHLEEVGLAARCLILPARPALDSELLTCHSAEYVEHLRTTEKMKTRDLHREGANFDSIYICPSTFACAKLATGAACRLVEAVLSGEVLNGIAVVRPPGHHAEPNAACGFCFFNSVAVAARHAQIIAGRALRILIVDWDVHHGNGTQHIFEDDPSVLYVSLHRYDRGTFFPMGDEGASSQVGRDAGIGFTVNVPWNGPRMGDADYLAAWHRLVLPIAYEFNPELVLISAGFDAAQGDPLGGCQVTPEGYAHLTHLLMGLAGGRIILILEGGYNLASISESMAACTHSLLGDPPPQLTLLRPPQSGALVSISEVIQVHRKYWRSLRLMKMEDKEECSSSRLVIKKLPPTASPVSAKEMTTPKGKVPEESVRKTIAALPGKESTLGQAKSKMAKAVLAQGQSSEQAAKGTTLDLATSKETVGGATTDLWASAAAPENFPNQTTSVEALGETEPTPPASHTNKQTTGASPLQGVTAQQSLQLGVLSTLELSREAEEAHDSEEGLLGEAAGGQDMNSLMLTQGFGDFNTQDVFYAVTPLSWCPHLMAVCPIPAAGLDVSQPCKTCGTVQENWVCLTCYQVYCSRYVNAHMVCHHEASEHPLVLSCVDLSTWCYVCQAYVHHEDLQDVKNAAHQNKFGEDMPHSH

`NCc1ccc(NC(=O)N(CCCCO)Cc2ccc(C(=O)NO)cc2)cc1` was tested. Which Ratio IC50 (HEK293) did it give?
Its Ratio IC50 is 1250.

And the Activity (Mus musculus)?
The Activity was “inactive”.

What about the inhibition [1] of the same compound?
Its inhibition is “Active”.
